According to US20220306659A1, “COMPOUND INHIBITING AND INDUCING DEGRADATION OF EGFR AND ALK” (BEIJING TIDE PHARMACEUTICAL CO., LTD., priority 2019, published 2022):

Tests used:
[1] = target: Ba/F3(EGFR^Del19/T790M/C797S) cells (Homo sapiens, UniProt P00533, DEL746-750/T790M/C797S, cells depend on it); assay: Assay of activity on Ba/F3 cells (CTG, 72 h); format: cell-based; details: read-out: IC50 (nM) Ba/F3 (EGFR^Del19/T790M/C797S)
How it was run: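 Ba/F3 cells dependent on each EGFR triple mutant were exposed to 3-fold compound dilutions for 72 h at 37° C, 5% CO2, with CellTiter-Glo luminescence as the read-out.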

Ba/F3(EML4-ALK) cells = target: T1, Ba/F3(EML4-ALK) cells (Homo sapiens, UniProt Q9UM73); assay: Assay of activity on Ba/F3(EML4-ALK) cells (CTG, 72 h); format: cell-based; details: read-out: IC50 (nM) Ba/F3(EML4-ALK)
T1 construct: fused on or other part: Q9HC35 (Echinoderm microtubule-associated protein-like 4)
T1 sequence (Q9UM73 whole entry, change not shown, the tested form may be a part): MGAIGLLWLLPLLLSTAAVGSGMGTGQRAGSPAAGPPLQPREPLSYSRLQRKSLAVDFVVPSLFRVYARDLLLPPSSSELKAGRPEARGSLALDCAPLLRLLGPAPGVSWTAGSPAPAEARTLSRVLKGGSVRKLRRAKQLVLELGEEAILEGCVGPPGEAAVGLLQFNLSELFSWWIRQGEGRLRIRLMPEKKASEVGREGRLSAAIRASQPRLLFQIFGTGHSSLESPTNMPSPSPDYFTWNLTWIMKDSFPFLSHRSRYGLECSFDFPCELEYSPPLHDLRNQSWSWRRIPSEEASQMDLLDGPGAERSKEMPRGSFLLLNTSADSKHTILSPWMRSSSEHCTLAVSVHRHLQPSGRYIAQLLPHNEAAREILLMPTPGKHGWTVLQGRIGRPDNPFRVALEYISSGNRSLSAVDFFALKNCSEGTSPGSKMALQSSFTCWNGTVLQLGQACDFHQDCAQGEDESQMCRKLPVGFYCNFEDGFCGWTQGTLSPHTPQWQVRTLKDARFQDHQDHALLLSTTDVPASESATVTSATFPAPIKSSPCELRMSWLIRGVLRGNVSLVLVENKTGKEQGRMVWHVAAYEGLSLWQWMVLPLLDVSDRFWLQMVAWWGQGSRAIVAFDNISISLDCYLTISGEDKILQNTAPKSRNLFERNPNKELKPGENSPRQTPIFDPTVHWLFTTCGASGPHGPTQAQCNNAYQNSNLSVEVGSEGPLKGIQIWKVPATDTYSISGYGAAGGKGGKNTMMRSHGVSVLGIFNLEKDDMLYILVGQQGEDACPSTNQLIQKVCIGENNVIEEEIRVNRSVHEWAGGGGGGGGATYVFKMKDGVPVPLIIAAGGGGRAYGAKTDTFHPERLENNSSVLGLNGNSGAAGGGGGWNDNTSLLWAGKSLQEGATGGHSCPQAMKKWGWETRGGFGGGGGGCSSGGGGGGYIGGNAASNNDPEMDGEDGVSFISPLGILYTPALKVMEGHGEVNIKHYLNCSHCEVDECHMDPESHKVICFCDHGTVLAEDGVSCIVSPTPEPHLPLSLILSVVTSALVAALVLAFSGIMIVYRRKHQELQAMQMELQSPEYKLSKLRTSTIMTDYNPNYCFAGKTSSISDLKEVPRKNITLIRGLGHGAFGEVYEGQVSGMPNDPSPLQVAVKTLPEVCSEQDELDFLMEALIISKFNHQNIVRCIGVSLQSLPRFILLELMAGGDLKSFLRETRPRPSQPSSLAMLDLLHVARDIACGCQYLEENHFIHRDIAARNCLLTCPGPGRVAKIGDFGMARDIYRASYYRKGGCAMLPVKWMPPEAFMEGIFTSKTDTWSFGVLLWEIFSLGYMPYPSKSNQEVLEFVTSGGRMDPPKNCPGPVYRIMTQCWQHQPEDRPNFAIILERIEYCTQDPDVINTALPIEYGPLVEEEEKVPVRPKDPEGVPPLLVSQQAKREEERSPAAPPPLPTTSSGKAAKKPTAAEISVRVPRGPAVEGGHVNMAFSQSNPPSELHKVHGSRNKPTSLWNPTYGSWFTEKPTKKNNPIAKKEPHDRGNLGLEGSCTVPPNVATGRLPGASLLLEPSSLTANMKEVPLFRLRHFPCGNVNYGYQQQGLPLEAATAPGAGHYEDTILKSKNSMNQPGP
Description: Assay of activity on Ba/F3(EML4-ALK) cells
(1) Ba/F3(EML4-ALK) cells were cultured according to the requirements of ATCC, incubated in an incubator at 37° C. and 5% CO2, and analyzed by index; cells with viability of >90% can be used in the assay, and cells were seeded in a 384-well plate (PerkinElmer, 6007680) with 700 cells/well, 30 μl/well.
(2) A compound stock solution was prepared, and diluted 3× to obtain a compound dilution; 30 nL of the serial dilution was added to a 384-well plate (784075, Greiner) by Echo 550, and cells were incubated in an incubator at 37° C. and 5% CO2 for 72 h.
(3) 30 μL of CTG was added to each well, and the 384-well plate was shaken on a Plate shaker (QILINBEIER, QB-9002); the 384-well plate was incubated in the dark at 37° C. and 5% CO2 for 30 min, and the chemiluminescence value was read by Envision (PerkinElmer, EnVision 2104).
The percent inhibition rate (% inhibition) was calculated by the formula below
LUMcmpd: Luminescence value of assay compound.
LUMpositive: Average LUM value of positive drug at a concentration of 10 μM.
LUM^vehicle: Average LUM value of negative control group without drug treatment.
The nonlinear regression curve (dose response-variable slope) between the value of inhibition rate (%) and the logarithm of compound concentration was fitted with graphpad prism 8.0, the effect dose curve of compound was drawn, and the IC50 value was calculated.
Y=Bottom+(Top−Bottom)/(1+10^((LogIC50−X)*HillSlope))
X-axis: logarithm of compound concentration; Y axis: inhibition rate (% inhibition).

Ba/F3(EGFR^Del19/T790M/C797S) cells, sequence (P00533 with tags, fused parts or gaps DEL746-750/T790M/C797S): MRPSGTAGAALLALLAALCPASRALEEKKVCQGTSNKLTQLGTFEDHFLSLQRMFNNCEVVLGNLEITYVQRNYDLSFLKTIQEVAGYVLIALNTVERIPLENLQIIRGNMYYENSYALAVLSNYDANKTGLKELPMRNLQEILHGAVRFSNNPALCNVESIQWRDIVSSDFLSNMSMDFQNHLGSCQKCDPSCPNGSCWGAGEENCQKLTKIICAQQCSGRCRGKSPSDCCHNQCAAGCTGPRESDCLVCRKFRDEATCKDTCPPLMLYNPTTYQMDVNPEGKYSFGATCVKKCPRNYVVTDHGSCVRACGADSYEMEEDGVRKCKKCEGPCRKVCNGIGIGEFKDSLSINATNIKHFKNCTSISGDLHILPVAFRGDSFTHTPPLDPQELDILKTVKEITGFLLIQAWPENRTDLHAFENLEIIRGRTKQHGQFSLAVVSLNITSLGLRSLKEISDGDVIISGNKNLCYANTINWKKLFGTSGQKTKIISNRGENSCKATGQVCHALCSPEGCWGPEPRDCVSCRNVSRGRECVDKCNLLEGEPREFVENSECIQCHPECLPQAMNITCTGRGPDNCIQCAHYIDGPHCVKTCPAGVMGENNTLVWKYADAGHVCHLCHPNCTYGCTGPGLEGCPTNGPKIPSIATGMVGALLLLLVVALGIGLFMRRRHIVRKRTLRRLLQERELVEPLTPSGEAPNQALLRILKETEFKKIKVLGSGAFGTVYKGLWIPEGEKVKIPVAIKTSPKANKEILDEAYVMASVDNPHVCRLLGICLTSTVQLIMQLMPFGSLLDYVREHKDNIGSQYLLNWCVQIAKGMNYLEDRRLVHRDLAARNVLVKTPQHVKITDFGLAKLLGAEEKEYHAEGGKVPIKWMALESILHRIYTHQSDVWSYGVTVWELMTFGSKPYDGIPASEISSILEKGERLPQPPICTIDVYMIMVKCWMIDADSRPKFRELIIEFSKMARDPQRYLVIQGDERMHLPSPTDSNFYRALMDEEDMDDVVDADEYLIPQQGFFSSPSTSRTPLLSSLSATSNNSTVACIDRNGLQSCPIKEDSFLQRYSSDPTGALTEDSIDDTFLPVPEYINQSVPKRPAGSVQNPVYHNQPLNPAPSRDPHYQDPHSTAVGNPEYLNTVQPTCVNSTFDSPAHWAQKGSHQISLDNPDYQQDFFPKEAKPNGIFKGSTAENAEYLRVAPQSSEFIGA

Row | Structure (SMILES) | GI50 [1] [nM] | GI50 (Ba/F3(EML4-ALK) cells) [nM]
1 | COc1cc(N2CCC(N3CCN(CCCCCC#Cc4ccc5c(c4)CN(C4CCC(=O)NC4=O)C5=O)CC3)CC2)c(C)cc1Nc1ncc(Br)c(Nc2ccc3nccnc3c2P(C)(C)=O)n1 (centres unmarked) [Compound C163, 3-(5-(7-(4-(1-(4-((5-bromo-4-((5-(dimethylphosphoryl)quinoxalin-6-yl)amino)pyrimidin-2-yl)amino)-5-methoxy-2-methylphenyl)piperidin-4-yl)piperazin-1-yl)hept-1-yn-1-yl)-1-oxoisoindolin-2-yl)piperidine-2,6-dione] | 1 to 100 | 1 to 100
2 | COc1cc(N2CCC3(CCN(CCCCCCC#Cc4cccc5c4CN(C4CCC(=O)NC4=O)C5=O)CC3)CC2)c(C)cc1Nc1ncc(Br)c(Nc2ccc3nccnc3c2P(C)(C)=O)n1 (centres unmarked) [Compound C172, 3-(4-(8-(9-(4-((5-bromo-4-((5-(dimethylphosphoryl)quinoxalin-6-yl)amino)pyrimidin-2-yl)amino)-5-methoxy-2-methylphenyl)-3,9-diazaspiro[5.5]undecan-3-yl)oct-1-yn-1-yl)-1-oxoisoindolin-2-yl)piperidine-2,6-dione] | 1 to 100 | 1 to 100
3 | COc1cc(N2CCC3(CCN(CCCCCCCC#Cc4cccc5c4CN(C4CCC(=O)NC4=O)C5=O)CC3)CC2)c(C)cc1Nc1ncc(Br)c(Nc2ccc3nccnc3c2P(C)(C)=O)n1 (centres unmarked) [Compound C173, 3-(4-(9-(9-(4-((5-bromo-4-((5-(dimethylphosphoryl)quinoxalin-6-yl)amino)pyrimidin-2-yl)amino)-5-methoxy-2-methylphenyl)-3,9-diazaspiro[5.5]undecan-3-yl)non-1-yn-1-yl)-1-oxoisoindolin-2-yl)piperidine-2,6-dione] | 1 to 100 | 1 to 100
4 | COc1cc(N2CCC(N3CCN(CCCOCC#Cc4cccc5c4CN(C4CCC(=O)NC4=O)C5=O)CC3)CC2)ccc1Nc1ncc(Cl)c(Nc2ccccc2P(C)(C)=O)n1 (centres unmarked) [Compound C181, 3-(4-(3-(3-(4-(1-(4-((5-chloro-4-((2-(dimethylphosphoryl)phenyl)amino)pyrimidin-2-yl)amino)-3-methoxyphenyl)piperidin-4-yl)piperazin-1-yl)propoxy)prop-1-yn-1-yl)-1-oxoisoindolin-2-yl)piperidine-2,6-dione] | 1 to 100 | 1 to 100
5 | COc1cc(N2CCC(N3CCN(CCCCOCC#Cc4cccc5c4CN(C4CCC(=O)NC4=O)C5=O)CC3)CC2)ccc1Nc1ncc(Cl)c(Nc2ccccc2P(C)(C)=O)n1 (centres unmarked) [Compound C182, 3-(4-(3-(4-(4-(1-(4-((5-chloro-4-((2-(dimethylphosphoryl)phenyl)amino)pyrimidin-2-yl)amino)-3-methoxyphenyl)piperidin-4-yl)piperazin-1-yl)butoxy)prop-1-yn-1-yl)-1-oxoisoindolin-2-yl)piperidine-2,6-dione] | 1 to 100 | 1 to 100
6 | COc1cc(N2CCC(N3CCN(CCOCC#Cc4cc(F)cc5c4CN(C4CCC(=O)NC4=O)C5=O)CC3)CC2)ccc1Nc1ncc(Cl)c(Nc2ccccc2P(C)(C)=O)n1 (centres unmarked) [Compound C184, 3-(4-(3-(2-(4-(1-(4-((5-chloro-4-((2-(dimethylphosphoryl)phenyl)amino)pyrimidin-2-yl)amino)-3-methoxyphenyl)piperidin-4-yl)piperazin-1-yl)ethoxy)prop-1-yn-1-yl)-6-fluoro-1-oxoisoindolin-2-yl)piperidine-2,6-dione] | 1 to 100 | 1 to 100
7 | COc1cc(N2CCC(N3CCN(CCCCC#Cc4cccc5c4CN(C4CCC(=O)NC4=O)C5=O)CC3)CC2)c(C)cc1Nc1ncc(Br)c(Nc2ccc3nccnc3c2P(C)(C)=O)n1 (centres unmarked) [Compound C186, 3-(4-(6-(4-(1-(4-((5-bromo-4-((5-(dimethylphosphoryl)quinoxalin-6-yl)amino)pyrimidin-2-yl)amino)-5-methoxy-2-methylphenyl)piperidin-4-yl)piperazin-1-yl)hex-1-yn-1-yl)-1-oxoisoindolin-2-yl)piperidine-2,6-dione] | 1 to 100 | 1 to 100
